# Laboratory results: PubChem BioAssay (NCI)
#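 48-hour exposure; five concentrations; linearly interpolated endpoints. TGI: total growth inhibition.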
# Columns and labels:
# Experiment in all cases: DTP human tumour cell line panel, 48 h
# 786-0 renal = tested on: 786-0 renal
# A498 renal = tested on: A498 renal
# A549 NSCLC = tested on: A549 NSCLC
# ACHN renal = tested on: ACHN renal
# CAKI-1 renal = tested on: CAKI-1 renal
# CCRF-CEM leukemia = tested on: CCRF-CEM leukemia
# COLO 205 colon = tested on: COLO 205 colon
# DLD-1 colon = tested on: DLD-1 colon
# DMS 114 small cell lung = tested on: DMS 114 small cell lung
# DMS 273 small cell lung = tested on: DMS 273 small cell lung
# EKVX NSCLC = tested on: EKVX NSCLC
# HCC-2998 colon = tested on: HCC-2998 colon
# HCT-116 colon = tested on: HCT-116 colon
# HCT-15 colon = tested on: HCT-15 colon
# HL-60(TB) leukemia = tested on: HL-60(TB) leukemia
# HOP-18 NSCLC = tested on: HOP-18 NSCLC
# HOP-62 NSCLC = tested on: HOP-62 NSCLC
# HOP-92 NSCLC = tested on: HOP-92 NSCLC
# HT29 colon = tested on: HT29 colon
# IGROV1 ovarian = tested on: IGROV1 ovarian
# K-562 leukemia = tested on: K-562 leukemia
# KM12 colon = tested on: KM12 colon
# KM20L2 colon = tested on: KM20L2 colon
# LOX IMVI melanoma = tested on: LOX IMVI melanoma
# LXFL 529 NSCLC = tested on: LXFL 529 NSCLC
# M14 melanoma = tested on: M14 melanoma
# M19-MEL melanoma = tested on: M19-MEL melanoma
# MALME-3M melanoma = tested on: MALME-3M melanoma
# MOLT-4 leukemia = tested on: MOLT-4 leukemia
# NCI-H226 lung = tested on: NCI-H226 lung
# NCI-H23 lung = tested on: NCI-H23 lung
# NCI-H460 lung = tested on: NCI-H460 lung
# NCI-H522 lung = tested on: NCI-H522 lung
# OVCAR-3 ovarian = tested on: OVCAR-3 ovarian
# OVCAR-4 ovarian = tested on: OVCAR-4 ovarian
# OVCAR-5 ovarian = tested on: OVCAR-5 ovarian
# OVCAR-8 ovarian = tested on: OVCAR-8 ovarian
# RPMI-8226 leukemia = tested on: RPMI-8226 leukemia
# RXF 393 renal = tested on: RXF 393 renal
# SF-268 CNS = tested on: SF-268 CNS
# SF-295 CNS = tested on: SF-295 CNS
# SF-539 CNS = tested on: SF-539 CNS
# SK-MEL-2 melanoma = tested on: SK-MEL-2 melanoma
# SK-MEL-28 melanoma = tested on: SK-MEL-28 melanoma
# SK-MEL-5 melanoma = tested on: SK-MEL-5 melanoma
# SK-OV-3 ovarian = tested on: SK-OV-3 ovarian
# SN12C renal = tested on: SN12C renal
# SNB-19 CNS = tested on: SNB-19 CNS
# SNB-78 CNS = tested on: SNB-78 CNS
# SR leukemia = tested on: SR leukemia
# SW-620 colon = tested on: SW-620 colon
# TK-10 renal = tested on: TK-10 renal
# U251 CNS = tested on: U251 CNS
# UACC-257 melanoma = tested on: UACC-257 melanoma
# UACC-62 melanoma = tested on: UACC-62 melanoma
# UO-31 renal = tested on: UO-31 renal
# XF 498 CNS = tested on: XF 498 CNS
# SNB-75 CNS = tested on: SNB-75 CNS
smiles,measurement,setting,value
COc1cc2c(c(OC(C)=O)c1OC(C)=O)-c1ccc(SC)c(=O)cc1C(NC(C)=O)CC2 (stereo not drawn),TGI,786-0 renal,> 100 µM
same,TGI,A498 renal,56.7 µM
same,TGI,A549 NSCLC,> 100 µM
same,TGI,ACHN renal,> 100 µM
same,TGI,CAKI-1 renal,> 100 µM
same,TGI,CCRF-CEM leukemia,35.7 µM
same,TGI,COLO 205 colon,3.13 µM
same,TGI,DLD-1 colon,> 100 µM
same,TGI,DMS 114 small cell lung,6.11 µM
same,TGI,DMS 273 small cell lung,> 100 µM
same,TGI,EKVX NSCLC,> 100 µM
same,TGI,HCC-2998 colon,> 100 µM
same,TGI,HCT-116 colon,17.5 µM
same,TGI,HCT-15 colon,> 100 µM
same,TGI,HL-60(TB) leukemia,1.34 µM
same,TGI,HOP-18 NSCLC,> 100 µM
same,TGI,HOP-62 NSCLC,> 75.5 µM
same,TGI,HOP-92 NSCLC,7.29 µM
same,TGI,HT29 colon,> 44.8 µM
same,TGI,IGROV1 ovarian,> 100 µM
same,TGI,K-562 leukemia,36.3 µM
same,TGI,KM12 colon,12 µM
same,TGI,KM20L2 colon,10.4 µM
same,TGI,LOX IMVI melanoma,> 100 µM
same,TGI,LXFL 529 NSCLC,> 82.3 µM
same,TGI,M14 melanoma,> 69.1 µM
same,TGI,M19-MEL melanoma,> 73.5 µM
same,TGI,MALME-3M melanoma,> 100 µM
same,TGI,MOLT-4 leukemia,> 100 µM
same,TGI,NCI-H226 lung,15.1 µM
same,TGI,NCI-H23 lung,31.4 µM
same,TGI,NCI-H460 lung,20 µM
same,TGI,NCI-H522 lung,1.2 µM
same,TGI,OVCAR-3 ovarian,2430 nM
same,TGI,OVCAR-4 ovarian,> 100 µM
same,TGI,OVCAR-5 ovarian,> 100 µM
same,TGI,OVCAR-8 ovarian,55.1 µM
same,TGI,RPMI-8226 leukemia,> 100 µM
same,TGI,RXF 393 renal,> 100 µM
same,TGI,SF-268 CNS,> 100 µM
same,TGI,SF-295 CNS,10.1 µM
same,TGI,SF-539 CNS,1.64 µM
same,TGI,SK-MEL-2 melanoma,7.07 µM
same,TGI,SK-MEL-28 melanoma,> 100 µM
same,TGI,SK-MEL-5 melanoma,3.46 µM
same,TGI,SK-OV-3 ovarian,> 36 µM
same,TGI,SN12C renal,> 100 µM
same,TGI,SNB-19 CNS,> 100 µM
same,TGI,SNB-78 CNS,> 100 µM
same,TGI,SR leukemia,> 100 µM
same,TGI,SW-620 colon,> 100 µM
same,TGI,TK-10 renal,> 100 µM
same,TGI,U251 CNS,> 32 µM
same,TGI,UACC-257 melanoma,> 100 µM
same,TGI,UACC-62 melanoma,> 100 µM
same,TGI,UO-31 renal,> 100 µM
same,TGI,XF 498 CNS,42.4 µM
CCCCCCCCCOC(=S)NCCCCC,TGI,786-0 renal,> 100 µM
same,TGI,A498 renal,59 µM
same,TGI,A549 NSCLC,81.7 µM
same,TGI,ACHN renal,69.9 µM
same,TGI,CAKI-1 renal,73.7 µM
same,TGI,CCRF-CEM leukemia,63.4 µM
same,TGI,DLD-1 colon,> 100 µM
same,TGI,DMS 114 small cell lung,47.4 µM
same,TGI,DMS 273 small cell lung,58.3 µM
same,TGI,EKVX NSCLC,86.8 µM
same,TGI,HCC-2998 colon,> 100 µM
same,TGI,HCT-116 colon,44.8 µM
same,TGI,HCT-15 colon,53.9 µM
same,TGI,HL-60(TB) leukemia,39.5 µM
same,TGI,HOP-18 NSCLC,> 100 µM
same,TGI,HOP-62 NSCLC,80.9 µM
same,TGI,HOP-92 NSCLC,53.9 µM
same,TGI,HT29 colon,63.4 µM
same,TGI,IGROV1 ovarian,> 100 µM
same,TGI,K-562 leukemia,84.1 µM
same,TGI,KM20L2 colon,59.3 µM
same,TGI,LOX IMVI melanoma,29.4 µM
same,TGI,LXFL 529 NSCLC,> 100 µM
same,TGI,M14 melanoma,87.9 µM
same,TGI,M19-MEL melanoma,> 100 µM
same,TGI,MALME-3M melanoma,63.2 µM
same,TGI,MOLT-4 leukemia,42.6 µM
same,TGI,NCI-H23 lung,68.3 µM
same,TGI,NCI-H460 lung,64 µM
same,TGI,NCI-H522 lung,46.6 µM
same,TGI,OVCAR-4 ovarian,> 100 µM
same,TGI,OVCAR-8 ovarian,> 100 µM
same,TGI,RPMI-8226 leukemia,40 µM
same,TGI,RXF 393 renal,53.6 µM
same,TGI,SF-268 CNS,> 100 µM
same,TGI,SF-295 CNS,> 100 µM
same,TGI,SF-539 CNS,41.3 µM
same,TGI,SK-MEL-28 melanoma,> 100 µM
same,TGI,SK-MEL-5 melanoma,40.7 µM
same,TGI,SK-OV-3 ovarian,87.7 µM
same,TGI,SN12C renal,74 µM
same,TGI,SNB-19 CNS,> 100 µM
same,TGI,SNB-75 CNS,> 100 µM
same,TGI,SNB-78 CNS,> 100 µM
same,TGI,SR leukemia,50.6 µM
same,TGI,SW-620 colon,> 100 µM
same,TGI,TK-10 renal,56.4 µM
same,TGI,U251 CNS,48.6 µM
same,TGI,UACC-257 melanoma,62.1 µM
same,TGI,UACC-62 melanoma,89 µM
same,TGI,UO-31 renal,51.1 µM
